Test results published in publication PMC9358475 (The Journal of Biological Chemistry, 2022).

Legend:
[1] = tested on: ERK1/2; assay: ERK-KTR live-cell ERK activity reporter in SH-SY5Y, […] h; type: cell-based
[2] = tested on: ERK1/2; assay: ERK-KTR live-cell ERK activity reporter in HCT-116, […] h; type: cell-based

Compound	IC50 [1]	IC50 [2]
O=C(Nc1ccc2[nH]nc(-c3ccncc3)c2c1)[C@@H]1CCN(CC(=O)N2CCN(c3ccc(-c4ncccn4)cc3)CC2)C1 [SCH, SCH772984]	75 nM	
CC(C)Nc1cc(-c2c[nH]c(C(=O)N[C@H](CO)c3cccc(Cl)c3)c2)c(Cl)cn1 [Ulix, ulixertinib]		32 nM
